# Legend:
# [1] = test system: pollen from the Arabidopsis Columbia strain; test: Time course of pollen germination and tube growth, Columbia strain; type: cell-based, Arabidopsis thaliana
# Experimental: (§1) Using the optimal concentration of compound for pollen tube stimulation (0.02 mg compound dispensed into 50 μL of pollen growth medium) pollen tube growth were time lapse imaged for a duration of greater than 12 hours. […] For example, Landsberg pollen grew about 130 μm longer in the presence of compound A compared to compound B (FIG. 11B).
# [2] = test system: Arabidopsis pollen; test: Time lapse imaging of pollen germination and pollen tube growth; type: cell-based, Arabidopsis thaliana; settings: for initiation of germination compared to no compound controls: 0.02 mg compound in 50 μL PGM, time lapse > 12 hours; for rate of pollen germination (in words): 0.02 mg compound in 50 μL of pollen growth medium
# Experimental: as §1
# [3] = test system: Arabidopsis thaliana, ecotype Columbia; test: Stimulation of pollen germination and pollen tube growth in vivo (seed yield); settings: sprayed onto plants after blossoms open
# Description: The stimulation of pollen germination in vivo may be achieved by applying an effective amount of one or both Compound A or Compound B, or functional derivative thereof, to a plant, such as Arabidopsis thaliana, ecotype Columbia, or another plant that is sufficiently evolutionarily related to Arabidopsis, such as a member of family Brassicaceae. The pollen growth stimulant can be applied in any formulation such as described herein and by any method of applying a compound to the flower of a plant. For example, an effective amount of Compound A can be sprayed onto any given number of plants in an area after blossoms open and pistils are exposed.
# [4] = test system: pollen from the Landsberg strain; test: Time course of pollen germination and tube growth, Landsberg strain; type: cell-based, Arabidopsis thaliana; settings: 0.02 mg compound
# Experimental: as §1
# [5] = Han et al. 2007; cited from earlier work
compound,measurement,setting,value
"C[S+]([O-])N1CCCC2CCCCC21 (stereo not drawn) [Compound A, 1-Methylsulfinyldecahydroquinoline]","extent of pollen growth, compound A versus B (in words)",[1],grew to a similar extent
same,initiation of germination compared to no compound controls,[2],approximately two hours earlier
same,rate of pollen germination (in words),[2],enhanced the rate of pollen germination
same,seed yield of plants exposed versus not exposed,[3],increased seed yield
same,additional pollen tube length in the presence of compound A compared to compound B,[4],about 130 μm
"C[S+]([O-])N1CCC2CCCCC2C1 (stereo not drawn) [Compound B, 2-Methylsulfinyldecahydroisoquinoline]","extent of pollen growth, compound A versus B (in words)",[1],grew to a similar extent
same,initiation of germination compared to no compound controls,[2],approximately two hours earlier
same,rate of pollen germination (in words),[2],enhanced the rate of pollen germination
O=c1c(O)c(-c2ccc(O)cc2)oc2cc(O)cc(O)c12 [kaempferol],solubility in ethyl acetate,[5],highly soluble in ethyl acetate
